Laboratory results reported in US20230043678A1, “USE OF 5-METHYLTETRAHYDROFOLATE” (priority 2019, published 2023).
Like-named read-outs stand apart in the source and are kept apart here.

Legend:
zebrafish embryos [1] = system: zebrafish embryos
Description: Transgenic zebrafish (fli-1:EGFP) were from the Model Animal Research Center of Nanjing University. Adult zebrafish aged less than 1 were used for experiment and fed at a water pH value of 7±0.2, a temperature around 28° C. and a ratio of illumination to darkness of 14 h:10 h, and with Artemia salina eggs twice a day. Three zebrafish, one female, two males, were placed in a spawning box the night before and eggs were collected the next morning. Fish eggs were placed in an embryo culture medium (prepared with 0.2 g/L of sea salt) and cultured at 28° C. […] Dead embryos were cleaned up in time. A phenotype of malformation was observed, the number of all abnormal zebrafish where the malformation was present was recorded and a malformation rate and a rescue rate of each group were calculated. Morphological defects, a heart rate, cardiac morphology and other indicators were observed and evaluated by an SMZ745T inverted stereomicroscope.

zebrafish embryos [2] = system: zebrafish embryos; remark: listed apart in the source
Description: A table was listed below for details.
5-Selected concentrations of methyltetrahydrofolate in the experiment were recorded in the table.

zebrafish embryos [3] = conditions: 30 mM HCHO
zebrafish embryos [4] = system: zebrafish embryos; remark: listed apart in the source
Description: Transgenic zebrafish (fli-1:EGFP) were from the Model Animal Research Center of Nanjing University. Adult zebrafish aged less than 1 year were used for experiment and fed at a water pH value of 7±0.2, a temperature around 28° C. and a ratio of illumination to darkness of 14 h:10 h, and with Artemia salina eggs twice a day. Three zebrafish, one female, two males, were placed in a spawning box the night before and eggs were collected the next morning. Fish eggs were placed in an embryo culture medium (prepared with 0.2 g/L of sea salt) and cultured at 28° C.
Zebrafish embryos were cultured in 24-well plates with 10 embryos per well at 2 hpf in a dosing manner, drug solutions of the above concentrations in the table were separately added, termination was conducted at 8 hpf, and the embryos were washed and transferred to an egg solution for continuous culture to 72 hpf. Dead embryos were cleaned up in time. Each experiment was conducted in triplicate.
A phenotype of malformation was observed, the number of all abnormal zebrafish where the malformation was present was recorded and a malformation rate and a rescue rate of each group were calculated. Morphological defects, a heart rate, cardiac morphology and other indicators were observed and evaluated by an SMZ745T inverted stereomicroscope.

CN(Cc1cnc2nc(N)nc(N)c2n1)c1ccc(C(=O)N[C@@H](CCC(=O)O)C(=O)O)cc1 [MTX, methotrexate]
pericardium edema and 10 s heart rate (48 hpf), body length (72 hpf) (zebrafish embryos [1]; 1.5 mM MTX): seriously led to pericardium edema, bradycardia, and a shortened body length of zebrafish
survival rate of embryos (zebrafish embryos [1]; 1.5 mM MTX, 6-10 hpf): lower than 0.1
embryo phenotype (zebrafish embryos [1]; 1.5 mM MTX, 24 hpf): led to hypoplasia and deformities such as small heads and short tails of zebrafish
embryo phenotype (zebrafish embryos [1]; 1.5 mM MTX, 48 hpf): led to body bending, intersegmental vascular hypoplasia and pericardium edema of zebrafish
embryo phenotype (zebrafish embryos [1]; 1.5 mM MTX, 72 hpf): led to a short body length and lower intestinal network vessel hypoplasia
Malformation rate (zebrafish embryos [1]; MTX group (1.5 mM)): 100%

COc1cccc2c1cc([N+](=O)[O-])c1c(C(=O)O)cc3c(c12)OCO3 [aristolochic acid A]
pericardium edema and 10 s heart rate (48 hpf), body length (72 hpf) (zebrafish embryos [2]; 1-5 μM aristolochic acid A): seriously led to pericardium edema, bradycardia, and a shortened body length in zebrafish
embryo phenotype (zebrafish embryos [2]; 1-5 μM aristolochic acid A, 8 hpf and 24 hpf): did not lead to obvious embryonic development delay, malformation and death
survival rate of embryos (zebrafish embryos [2]; 2-5 μM aristolochic acid A): seriously reduce a survival rate of embryos
embryo phenotype (zebrafish embryos [2]; aristolochic acid A, 72 hpf): showed a complete deficiency of development of the lower intestinal network blood vessels of the zebrafish
embryo phenotype (zebrafish embryos [2]; aristolochic acid A, increasing concentration, 48 hpf): gradually showed pericardium edema, a slowed heart rate, curved bodies, a disappeared systemic blood flow, hematocele, yolk sac opacity

C=O [HCHO, formaldehyde]
lethality and teratogenicity to zebrafish (zebrafish embryos [3]): lethal but not teratogenic to zebrafish
pericardium edema and heart rate (48 hpf), body length (72 hpf) (zebrafish embryos [3]): had no effect on the pericardium edema, the heart rate and the body length of the zebrafish
survival rate of embryos (zebrafish embryos [3]): severely lead to a low survival rate of embryos
embryo development (zebrafish embryos [3]; 8 hpf): delayed development of the zebrafish embryos
heart shape and lower intestinal network blood vessels (zebrafish embryos [3]; 72 hpf): normal heart shape and normal development of lower intestinal network blood vessels

CCO [EtOH, ethanol]
survival rate (zebrafish embryos [4]; […] EtOH): significantly different from that of the control group
heart rate (zebrafish embryos [4]; zebrafish, in vivo): led to a malformed phenotype of bradycardia in zebrafish embryos
lower intestinal network blood vessels (zebrafish embryos [4]; zebrafish, in vivo): led to developmental disorders of lower intestinal network blood vessels of the zebrafish
pericardium edema (zebrafish embryos [4]; zebrafish, in vivo): led to a malformed phenotype of pericardium edema in zebrafish embryos
